Measured values reported in patent US20120100989A1, “3-Aryl-4-(2-thienylmethylene)isoxazol-5(4H)-ones as Fungicides” (Bayer CropScience AG, priority 2010, published 2012).

Assays:
Plasmopara viticola = test: Plasmopara test (grapevine)/protective; assay type: in vivo; conditions: protective, 100 ppm active compound, evaluation 6 days after inoculation
Protocol: Plasmopara Test (Grapevine)/Protective [table] To produce a suitable preparation of active compound, 1 part by weight of active compound is mixed with the stated amounts of solvent and emulsifier, and the concentrate is diluted with water to the desired concentration. To test for protective activity, young plants are sprayed with the active compound preparation at the stated application rate. After the spray coating has dried on, the plants are inoculated with an aqueous spore suspension of Plasmopara viticola and then remain in an incubation cabin at about 20° C. and 100% relative atmospheric humidity for 1 day. The plants are then placed in a greenhouse at about 21° C. and about 90% atmospheric humidity for 4 days. The plants are then moistened and placed in an incubation cabin for 1 day.

Alternaria solani = test: Alternaria test (tomato)/protective; assay type: in vivo; conditions: protective, 500 ppm active compound, evaluation 7 days after inoculation
Protocol: Alternaria Test (Tomato)/Protective [table] To produce a suitable preparation of active compound, 1 part by weight of active compound is mixed with the stated amounts of solvent and emulsifier, and the concentrate is diluted with water to the desired concentration. To test for protective activity, young tomato plants are sprayed with the active compound preparation at the stated application rate. 1 day after the treatment, the plants are inoculated with a spore suspension of Alternaria solani and then remain at 100% relative humidity and 20° C. for 24 h. The plants then remain at 96% relative atmospheric humidity and a temperature of 20° C.

Venturia inaegualis = test: Venturia test (apple)/protective; assay type: in vivo; conditions: protective, 100 ppm active compound, evaluation 10 days after inoculation
Protocol: Venturia Test (Apple)/Protective [table] To produce a suitable preparation of active compound, 1 part by weight of active compound is mixed with the stated amounts of solvent and emulsifier, and the concentrate is diluted with water to the desired concentration. To test for protective activity, young plants are sprayed with the active compound preparation at the stated application rate. After the spray coating has dried on, the plants are inoculated with an aqueous conidia suspension of the apple scab pathogen Venturia inaegualis and then remain in an incubation cabin at about […] and 100% relative atmospheric humidity for 1 day. The plants are then placed in the greenhouse at about 21° C. and a relative atmospheric humidity of about 90%.

Phytophthora infestans = assay type: in vivo; conditions: protective, 100 ppm active compound, evaluation 3 days after inoculation
[1] = tested on: Blumeria graminis f sp. tritici; test: Blumeria test (wheat)/protective; assay type: in vivo; conditions: protective, 1000 ppm active compound, evaluation 7 days after inoculation
Protocol: Blumeria Test (Wheat)/Protective [table] To produce a suitable preparation of active compound, 1 part by weight of active compound is mixed with the stated amounts of solvent and emulsifier, and the concentrate is diluted with water to the desired concentration. To test for protective activity, young plants are sprayed with the active compound preparation at the stated application rate. After the spray coating has dried on, the plants are dusted with spores of Blumeria graminis f sp. tritici.

[2] = log P by HPLC on reversed-phase columns (C 18), EEC directive 79/831 Annex V.A8; assay type: physicochemical; conditions: pH 2.7
Protocol: The log P values were measured according to EEC directive 79/831 Annex V.A8 by HPLC (High Performance Liquid Chromatography) on reversed-phase columns (C 18), using the method below:
The determination was carried out in the acidic range at pH 2.7 using the mobile phases 0.1% aqueous formic acid and acetonitrile; linear gradient from 10% acetonitrile to 95% acetonitrile.

[3] = tested on: caterpillars of the armyworm (Spodoptera frugiperda); test: Spodoptera frugiperda test (spray treatment); assay type: in vivo; conditions: maize leaf discs, application rate 500 g/ha
Protocol: Example J Spodoptera Frugiperda Test (Spray Treatment) [table] To produce a suitable preparation of active compound, 1 part by weight of active compound is mixed with the stated amounts of solvent and emulsifier, and the concentrate is diluted with emulsifier-containing water to the desired concentration. Discs of maize leaves (Zea mays) are sprayed with an active compound preparation of the desired concentration and, after drying, populated with caterpillars of the armyworm (Spodoptera frugiperda). After the desired period of time, the effect in % is determined. 100% means that all caterpillars have been killed; 0% means that none of the caterpillars have been killed.

Structure (SMILES) | log P [2] | also measured
CC1=NOC(=O)/C1=C\c1ccco1 [A-8] | – | efficacy (Plasmopara viticola): 28%; efficacy (Alternaria solani): 0%; efficacy (Venturia inaegualis): 6%; efficacy (Phytophthora infestans): 0%; efficacy [1]: 29%
O=C1ON=C(c2ccc(Cl)cc2)C1=Cc1cccs1 [I-5] | 3.44 | activity (caterpillars killed) [3]: 80%
CC(C)(C)c1ccc(C2=NOC(=O)C2=Cc2cccs2)cc1 [I-29] | 4.39 | activity (caterpillars killed) [3]: 80%
O=C1ON=C(c2ccc(F)cc2)C1=Cc1cc(Br)cs1 [I-30] | 3.76 | activity (caterpillars killed) [3]: 80%
Cc1ccsc1C=C1C(=O)ON=C1c1ccc(F)cc1 [I-32] | 3.26 | activity (caterpillars killed) [3]: 80%
Cc1ccc(C=C2C(=O)ON=C2c2ccc(F)cc2)s1 [I-33] | 3.34 | activity (caterpillars killed) [3]: 80%
COc1ccc(C2=NOC(=O)C2=Cc2ccc(Cl)s2)cc1 [I-43] | 3.70 | activity (caterpillars killed) [3]: 80%
O=C1ON=C(c2ccc(OC(F)(F)F)cc2)C1=Cc1cccs1 [I-55] | 3.80 | activity (caterpillars killed) [3]: 80%
O=C1ON=C(c2ccc(C(F)(F)F)cc2)C1=Cc1cccs1 [I-56] | 3.68 | activity (caterpillars killed) [3]: 80%
CCOc1ccc(C2=NOC(=O)C2=Cc2cccs2)cc1 [I-58] | 3.41 | activity (caterpillars killed) [3]: 80%
CC(C)Oc1ccc(C2=NOC(=O)C2=Cc2cccs2)cc1 [I-79] | 3.73 | activity (caterpillars killed) [3]: 80%
O=C1ON=C(c2cc(F)ccc2Cl)C1=Cc1cccs1 [I-127] | 3.28 | –
O=C1ON=C(c2cc(Br)ccc2Cl)C1=Cc1cccs1 [I-128] | 3.74 | –
O=C1ON=C(c2cc(F)ccc2Cl)C1=Cc1ccc(Br)s1 [I-129] | 4.06 | –
Cc1ccsc1C=C1C(=O)ON=C1c1cc(F)ccc1Cl [I-130] | 3.55 | –
Cc1ccc(C=C2C(=O)ON=C2c2cc(Br)ccc2Cl)s1 [I-131] | 4.02 | –
Cc1ccsc1C=C1C(=O)ON=C1c1cc(Br)ccc1Cl [I-132] | 3.97 | –
O=C1ON=C(c2cc(F)ccc2Cl)C1=Cc1ccc([N+](=O)[O-])s1 [I-133] | 3.50 | –
O=C1ON=C(c2ccccc2[N+](=O)[O-])C1=Cc1ccc(Br)s1 [I-134] | 3.35 | –
Cc1ccsc1C=C1C(=O)ON=C1c1ccccc1[N+](=O)[O-] [I-135] | 2.85 | –
O=C1ON=C(c2cc(F)ccc2Cl)C1=Cc1sccc1Cl [I-136] | 3.95 | –
O=C1ON=C(c2cc(F)ccc2Cl)C1=Cc1cc(Br)cs1 [I-137] | 3.95 | –
O=C1ON=C(c2cc(Br)ccc2Cl)C1=Cc1ccc(Cl)s1 [I-138] | 4.45 | –

Structure (SMILES) | log P [2] | also measured
O=C1ON=C(c2cc(F)ccc2F)C1=Cc1ccc(Cl)s1 [I-139] | 3.84 | –
Cc1c(C=C2C(=O)ON=C2c2ccccc2Cl)sc2ccccc12 [I-140] | 4.31 | –
Cc1ccc(C2=NOC(=O)C2=Cc2sc3ccccc3c2C)cc1 [I-142] | 4.51 | –
Cc1c(C=C2C(=O)ON=C2c2ccc(F)cc2)sc2ccccc12 [I-143] | 4.18 | –
Cc1c(C=C2C(=O)ON=C2c2ccc(Cl)cc2)sc2ccccc12 [I-144] | 4.63 | –
Cc1c(C=C2C(=O)ON=C2c2ccccc2)sc2ccccc12 [I-145] | 4.13 | –
Cc1c(C=C2C(=O)ON=C2c2cc(F)ccc2Cl)sc2ccccc12 [I-146] | 4.32 | –
O=C1ON=C(c2ccccc2)C1=Cc1cccs1 [U-1] | – | activity (caterpillars killed) [3]: 80%
Cc1ccc(C2=NOC(=O)C2=Cc2cccs2)cc1 [U-2] | 3.32 | activity (caterpillars killed) [3]: 80%
Cc1ccc(C=C2C(=O)ON=C2c2ccccc2)s1 [U-3] | 3.27 | –
COc1cccc(C2=NOC(=O)C2=Cc2cccs2)c1 [U-6] | 2.90 | –
Cc1ccc(C2=NOC(=O)C2=Cc2cc(Br)cs2)cc1 [U-7] | 4.09 | –
Cc1ccc(C2=NOC(=O)C2=Cc2sccc2C)cc1 [U-8] | 3.57 | –
COc1ccc(C2=NOC(=O)C2=Cc2ccc(C)s2)cc1 [U-9] | 3.28 | activity (caterpillars killed) [3]: 80%
Cc1ccc(C2=NOC(=O)C2=Cc2ccc(C)s2)cc1 [U-10] | 3.67 | activity (caterpillars killed) [3]: 80%
COc1ccc(C2=NOC(=O)C2=Cc2sccc2C)cc1 [U-11] | 3.18 | –
COc1cccc(C2=NOC(=O)C2=Cc2ccc(C)s2)c1 [U-12] | 3.34 | activity (caterpillars killed) [3]: 80%
COc1cccc(C2=NOC(=O)C2=Cc2sccc2C)c1 [U-13] | 3.24 | –
COc1cccc(C2=NOC(=O)C2=Cc2cc(Br)cs2)c1 [U-14] | 3.76 | –
COc1cccc(C2=NOC(=O)C2=Cc2ccc([N+](=O)[O-])s2)c1 [U-15] | 3.38 | –
COc1ccc(C2=NOC(=O)C2=Cc2cc(Br)cs2)cc1 [U-16] | 3.71 | –
COc1ccc(C2=NOC(=O)C2=Cc2ccc([N+](=O)[O-])s2)cc1 [U-17] | 6.31 | –
Cc1ccc(C2=NOC(=O)C2=Cc2ccc([N+](=O)[O-])s2)cc1 [U-18] | 3.62 | –

Structure (SMILES) | log P [2] | also measured
COc1ccc(C2=NOC(=O)C2=Cc2cccs2)cc1OC [U-19] | 3.01 | –
COc1cc(OC)cc(C2=NOC(=O)C2=Cc2ccc(C)s2)c1 [U-20] | 3.48 | –
COc1cc(OC)cc(C2=NOC(=O)C2=Cc2cccs2)c1 [U-21] | 3.20 | –
COc1cccc(OC)c1C1=NOC(=O)C1=Cc1cccs1 [U-22] | 2.79 | –
Cc1ccsc1C=C1C(=O)ON=C1c1ccc([N+](=O)[O-])cc1 [U-23] | 3.18 | –
Cc1ccc(C=C2C(=O)ON=C2c2ccc([N+](=O)[O-])cc2)s1 [U-24] | 3.29 | –
COc1ccc(C2=NOC(=O)C2=Cc2ccc(C)s2)c(OC)c1 [U-25] | 2.97 | –
COc1ccc(C2=NOC(=O)C2=Cc2sccc2C)cc1OC [U-26] | 3.17 | –
COc1ccc(C2=NOC(=O)C2=Cc2sccc2C)c(OC)c1 [U-27] | 2.81 | –
COc1ccc(C2=NOC(=O)C2=Cc2cccs2)c(OC)c1 [U-28] | 2.68 | –
Cc1ccsc1C=C1C(=O)ON=C1c1ccccc1 [U-29] | 3.18 | –
COc1cccc(C2=NOC(=O)C2=Cc2cccs2)c1OC [U-30] | 2.97 | –
COc1ccc(F)cc1C1=NOC(=O)C1=Cc1cccs1 [U-31] | 3.06 | –
COc1ccc(F)cc1C1=NOC(=O)C1=Cc1sccc1C [U-32] | 3.21 | –
O=C1ON=C(c2ccccc2)C1=Cc1cccs1 [U-33] | 2.91 | –
O=C1ON=C(c2ccccc2)C1=Cc1cc(Br)cs1 [U-36] | 3.71 | –
COc1ccc(C2=NOC(=O)C2=Cc2cccs2)cc1 [U-37] | 2.95 | activity (caterpillars killed) [3]: 80%
COc1ccc(C2=NOC(=O)/C2=C\c2cccs2)cc1 [U-38] | 2.95 | activity (caterpillars killed) [3]: 80%
COc1ccccc1C1=NOC(=O)/C1=C\c1cccs1 [U-39] | 2.75 | activity (caterpillars killed) [3]: 80%
O=C1ON=C(c2ccc([N+](=O)[O-])cc2)/C1=C/c1cccs1 [U-40] | 3.03 | –
O=C1ON=C(c2ccccc2)/C1=C/c1ccc([N+](=O)[O-])s1 [U-41] | 3.27 | –
Cc1ccc(/C=C2\C(=O)ON=C2c2ccccc2)s1 [U-42] | 3.35 | –
